Experimental data as given in US20260070885A1, “TRKA (G667C) AND FLT3 TARGET INHIBITOR AND COMBINATION OF SAME WITH CHIDAMIDE” (SHENZHEN CHIPSCREEN BIOSCIENCES CO., LTD., priority 2022, published 2026).

What was measured:
FLT3 = FLT3 (Homo sapiens (Human), UniProt P36888); experiment: HTRF kinase inhibition assay, FLT3; type: biochemical; conditions: ATP 2 μM
Procedure: (§1) The inhibition of the kinases TRKA (G667C), FLT3, and FLT3 (D835Y) by the compound N-[4-(6-fluoro-1H-2-benzimidazolyl)benzyl]-(E)-3-(pyridin-3-yl)acrylamide of the present disclosure (hereinafter referred to as compound A) was assessed using a homogeneous time-resolved fluorescence (HTRF) method based on biochemical levels.
(§2) HTRF is a technology used for detecting a test substance in a pure liquid phase system. Based on two major technologies: fluorescence resonance energy transfer (FRET) and time-resolved fluorescence (TRF), the generated fluorescence intensity was measured using a microplate reader, and the ratio 665 nm/620 nm reflected the extent to which compound A inhibited the activity of the kinases TRKA (G667C), FLT3, and FLT3 (D835Y).
(§3) a) Preparation of compound A or chidamide: The starting stock solution concentration of compound A or chidamide was 20 mM. The stock solution was serially diluted with the solvent 100% DMSO to 0.2 mM, which was 200 times the assay starting concentration.
(§4) b) A kinase reaction buffer Assay Buffer was prepared using the following formula: […]
(§5) 4) After the 384-well plate was centrifuged at 1000 rpm for 30 s and shaken for thorough mixing, the fluorescence intensities at 665 nm and 620 nm were measured using EnVision, and the TR-FRET ratio (665 nm/620 nm) was calculated. […]

TRKA (G667C) = TRKA (G667C) (Homo sapiens (Human), UniProt P04629, G667C); experiment: HTRF kinase inhibition assay, TRKA (G667C); type: biochemical; conditions: ATP 0.5 μM
Sequence of TRKA (G667C) (P04629 33-796 G667C): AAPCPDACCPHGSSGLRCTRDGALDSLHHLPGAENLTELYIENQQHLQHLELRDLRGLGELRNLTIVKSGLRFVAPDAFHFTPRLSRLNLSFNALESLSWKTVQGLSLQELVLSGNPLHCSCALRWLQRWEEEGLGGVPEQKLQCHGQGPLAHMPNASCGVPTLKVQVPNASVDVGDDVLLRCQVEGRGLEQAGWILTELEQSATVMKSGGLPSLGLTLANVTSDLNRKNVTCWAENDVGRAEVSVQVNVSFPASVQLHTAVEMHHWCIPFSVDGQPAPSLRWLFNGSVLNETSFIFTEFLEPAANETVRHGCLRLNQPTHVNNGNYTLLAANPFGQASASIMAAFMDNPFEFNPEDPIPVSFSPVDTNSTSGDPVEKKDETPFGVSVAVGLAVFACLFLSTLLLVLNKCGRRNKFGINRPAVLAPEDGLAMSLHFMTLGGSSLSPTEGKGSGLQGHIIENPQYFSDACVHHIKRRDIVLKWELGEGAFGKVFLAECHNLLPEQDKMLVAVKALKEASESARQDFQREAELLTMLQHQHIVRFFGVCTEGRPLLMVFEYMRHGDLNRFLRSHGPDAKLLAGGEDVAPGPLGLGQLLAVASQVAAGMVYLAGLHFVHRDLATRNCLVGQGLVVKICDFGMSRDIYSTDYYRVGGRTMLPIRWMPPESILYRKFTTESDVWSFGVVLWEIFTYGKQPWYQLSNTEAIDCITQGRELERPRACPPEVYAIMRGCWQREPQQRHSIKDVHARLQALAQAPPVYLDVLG
Procedure: as §1, §2, §3, §4, §5

FLT3 (D835Y) = FLT3 (D835Y) (Homo sapiens (Human), UniProt P36888, D835Y); experiment: HTRF kinase inhibition assay, FLT3 (D835Y); type: biochemical; conditions: ATP 0.5 μM
Procedure: as §1, §2, §3, §4, §5

SHP77 cells = experiment: Viability of SHP77 cells (MTS assay); type: cell-based; conditions: 72 h
Procedure: The SHP77 cell line was purchased from the American Type Culture Collection (ATCC) and cultured in an RPMI-1640 culture medium (Hyclone) containing 1% dual antibiotics (penicillin-streptomycin, Hyclone) and 10% fetal bovine serum (Gibco).
Compound A (N-[4-(6-Fluoro-1H-2-benzimidazolyl)benzyl]-(E)-3-(pyridin-3-yl)acrylamide) and chidamide were both from Shenzhen Chipscreen Biosciences Co., Ltd. The compound and chidamide were dissolved in dimethyl sulfoxide (DMSO, Shanghai Sangon, DN3039A) to prepare 20 mM working mother liquors, and the mother liquors were stored in a freezer at −20° C. before use. When in use, the mother liquors were diluted to prepare working solutions with corresponding final concentrations according to the needs of each experiment.
MTS solution: 42 mg of MTS Reagent Powder was placed in a light shielding container, and 21 mL of PBS was added. The mixture was gently stirred on a magnetic stirrer for 15 min until MTS was completely dissolved. The pH of the solution was measured. If the pH was higher than 6.5, the pH of the solution was adjusted to 6.5 with 1 M HCl. The solution was sterilized by filtration through a 0.2 μm filter and stored at −20° C. in a dark place.
PMS solution: […] of PMS was added to 21.7 mL of PBS to prepare a 150 μM stock solution, and the stock solution was sterilized by filtration, aliquoted, and stored at −20° C. in a dark place.
2.2. […]
2.4. […] After the plate was incubated for about 1 h, the absorbance at 490 nm in each well was measured using a microplate reader.
The reading of the BLANK well was OD490-BLANK (background value). The background value was subtracted from the readings of the wells to obtain the absorbance values of the administration wells, OD490-T, and the absorbance values of the control wells in which the drug concentration was 0, OD490-T0. With the cell viability of the control wells defined as 100%, the relative cell survival rate in each administration well was calculated using the formula: relative cell survival rate (%)=(OD490-T/OD490-T0)×100%.

Structure (SMILES)	IC50 (FLT3) [nM]	IC50 (TRKA (G667C)) [nM]	IC50 (FLT3 (D835Y)) [nM]	relative cell survival rate (SHP77 cells; compound A alone 0.625 μM) [%]	relative cell survival rate (SHP77 cells; compound A alone 1.25 μM) [%]	relative cell survival rate (SHP77 cells; chidamide alone 0.5 μM) [%]
O=C(/C=C/c1cccnc1)NCc1ccc(-c2nc3ccc(F)cc3[nH]2)cc1 [Compound A, N-[4-(6-fluoro-1H-2-benzimidazolyl)benzyl]-(E)-3-(pyridin-3-yl)acrylamide]	143	40.7	104	77.43±1.18	44.09±6.59	–
Nc1cc(F)ccc1NC(=O)c1ccc(CNC(=O)/C=C/c2cccnc2)cc1 [Chidamide, N-(2-amino-4-fluorophenyl)-4-[N-[(E)-3-(pyridin-3-yl)acryloyl]aminomethyl]benzamide]	> 1000	> 1000	> 1000	–	–	95.45±0.81
